From patent publication US9149038B2, “4-amino-6-(heterocyclic)picolinates and 6-amino-2-(heterocyclic)pyrimidine-4-carboxylates and their use as herbicides” (Dow AgroSciences LLC, priority 2013, dated 2015)
Like-named read-outs stand apart in the source and are kept apart here.

Key:
[1] = system: Key Broadleaf Weed and Crop Species; assay: Post-Emergent Test II: postemergent herbicidal activity, visual rating after 14 d (Table 7); type: in vivo; details: post-emergence, 336 h; for pest or weed control at 35 g/ha: 35 g ai/ha; for pest or weed control at 70 g/ha: 70 g ai/ha; for pest or weed control at 140 g/ha: 140 g ai/ha
Method in brief: (§1)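 Visual 0-100% injury score (0 no injury, 100 complete kill) at 14 d post-spray, relative to untreated plants. Seedlings at 1st-2nd true leaf stage; track sprayer at 187 L/ha, highest rate plus ½×, ¼×, ⅛×, 1/16× serial dilutions. Subirrigated after treatment.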

[2] = system: Key Grass and Sedge Weeds as well as Grass Crops; assay: Post-Emergent Test II: postemergent herbicidal activity, visual rating after 14 d (Table 8); type: in vivo; details: post-emergence, 336 h; for pest or weed control at 35 g/ha: 35 g ai/ha; for pest or weed control at 70 g/ha: 70 g ai/ha; for pest or weed control at 140 g/ha: 140 g ai/ha
Method in brief: as §1

[3] = lambsquarters (Chenopodium album), read-out: Visual Growth Reduction (%) 14 Days After Application CHEAL
[4] = oilseed rape, canola (Brassica napus), read-out: Visual Growth Reduction (%) 14 Days After Application BRSNN
[5] = redroot pigweed (Amaranthus retroflexus), read-out: Visual Growth Reduction (%) 14 Days After Application AMARE
[6] = sunflower (Helianthus annuus), read-out: Visual Growth Reduction (%) 14 Days After Application HELAN
[7] = velvetleaf (Abutilon theophrasti), read-out: Visual Growth Reduction (%) 14 Days After Application ABUTH
[8] = wild poinsettia (Euphorbia heterophylla), read-out: Visual Growth Reduction (%) 14 Days After Application EPHHL
[9] = barnyardgrass (Echinochloa crus-galli), read-out: Visual Growth Reduction (%) 14 Days After Application ECHCG
[10] = giant foxtail (Setaria faberi), read-out: Visual Growth Reduction (%) 14 Days After Application SETFA
[11] = maize, corn (Zea mays), read-out: Visual Growth Reduction (%) 14 Days After Application ZEAMX
[12] = rice (Oryza sativa), read-out: Visual Growth Reduction (%) 14 Days After Application ORYSA
[13] = wheat, spring (Triticum aestivum), read-out: Visual Growth Reduction (%) 14 Days After Application TRZAS
[14] = yellow nutsedge (Cyperus esculentus), read-out: Visual Growth Reduction (%) 14 Days After Application CYPES

COC(=O)c1nc(-c2c(F)cc3c(c2F)OCO3)cc(N)c1Cl [Compound 48]
pest or weed control at 35 g/ha [1, 3]: 95 to 100% | pest or weed control at 70 g/ha [1, 3]: 95 to 100% | pest or weed control at 140 g/ha [1, 3]: 95 to 100% | pest or weed control at 35 g/ha [1, 4]: 95 to 100% | pest or weed control at 70 g/ha [1, 4]: 95 to 100% | pest or weed control at 140 g/ha [1, 4]: 95 to 100% | pest or weed control at 35 g/ha [1, 5]: 85 to 94% | pest or weed control at 70 g/ha [1, 5]: 95 to 100% | pest or weed control at 140 g/ha [1, 5]: 95 to 100% | pest or weed control at 35 g/ha [1, 6]: 0 to 29% | pest or weed control at 70 g/ha [1, 6]: 45 to 59% | pest or weed control at 140 g/ha [1, 6]: 60 to 74% | pest or weed control at 35 g/ha [1, 7]: 85 to 94% | pest or weed control at 70 g/ha [1, 7]: 95 to 100% | pest or weed control at 140 g/ha [1, 7]: 95 to 100% | pest or weed control at 35 g/ha [1, 8]: 95 to 100% | pest or weed control at 70 g/ha [1, 8]: 95 to 100% | pest or weed control at 140 g/ha [1, 8]: 95 to 100% | pest or weed control at 35 g/ha [2, 9]: 75 to 84% | pest or weed control at 70 g/ha [2, 9]: 75 to 84% | pest or weed control at 140 g/ha [2, 9]: 85 to 94% | pest or weed control at 35 g/ha [2, 10]: 0 to 29% | pest or weed control at 70 g/ha [2, 10]: 60 to 74% | pest or weed control at 140 g/ha [2, 10]: 75 to 84% | pest or weed control at 35 g/ha [2, 11]: 30 to 44% | pest or weed control at 70 g/ha [2, 11]: 60 to 74% | pest or weed control at 140 g/ha [2, 11]: 75 to 84% | pest or weed control at 35 g/ha [2, 12]: 30 to 44% | pest or weed control at 70 g/ha [2, 12]: 45 to 59% | pest or weed control at 140 g/ha [2, 12]: 60 to 74% | pest or weed control at 35 g/ha [2, 13]: 0 to 29% | pest or weed control at 70 g/ha [2, 13]: 30 to 44% | pest or weed control at 140 g/ha [2, 13]: 60 to 74% | pest or weed control at 35 g/ha [2, 14]: 0 to 29% | pest or weed control at 70 g/ha [2, 14]: 0 to 29% | pest or weed control at 140 g/ha [2, 14]: 30 to 44%

COC(=O)c1nc(-c2ccc(F)c3c2OC(F)(F)O3)c(F)c(N)c1Cl [Compound 76]
pest or weed control at 35 g/ha [1, 3]: 85 to 94% | pest or weed control at 70 g/ha [1, 3]: 85 to 94% | pest or weed control at 140 g/ha [1, 3]: 95 to 100% | pest or weed control at 35 g/ha [1, 4]: 60 to 74% | pest or weed control at 70 g/ha [1, 4]: 75 to 84% | pest or weed control at 140 g/ha [1, 4]: 85 to 94% | pest or weed control at 35 g/ha [1, 5]: 95 to 100% | pest or weed control at 70 g/ha [1, 5]: 95 to 100% | pest or weed control at 140 g/ha [1, 5]: 95 to 100% | pest or weed control at 35 g/ha [1, 6]: 85 to 94% | pest or weed control at 70 g/ha [1, 6]: 85 to 94% | pest or weed control at 140 g/ha [1, 6]: 85 to 94% | pest or weed control at 35 g/ha [1, 7]: 60 to 74% | pest or weed control at 70 g/ha [1, 7]: 75 to 84% | pest or weed control at 140 g/ha [1, 7]: 85 to 94% | pest or weed control at 35 g/ha [1, 8]: 0 to 29% | pest or weed control at 70 g/ha [1, 8]: 0 to 29% | pest or weed control at 140 g/ha [1, 8]: 0 to 29% | pest or weed control at 35 g/ha [2, 9]: 0 to 29% | pest or weed control at 70 g/ha [2, 9]: 0 to 29% | pest or weed control at 140 g/ha [2, 9]: 0 to 29% | pest or weed control at 35 g/ha [2, 10]: 0 to 29% | pest or weed control at 70 g/ha [2, 10]: 0 to 29% | pest or weed control at 140 g/ha [2, 10]: 0 to 29% | pest or weed control at 35 g/ha [2, 11]: 0 to 29% | pest or weed control at 70 g/ha [2, 11]: 0 to 29% | pest or weed control at 140 g/ha [2, 11]: 0 to 29% | pest or weed control at 35 g/ha [2, 12]: 0 to 29% | pest or weed control at 70 g/ha [2, 12]: 0 to 29% | pest or weed control at 140 g/ha [2, 12]: 0 to 29% | pest or weed control at 35 g/ha [2, 13]: 30 to 44% | pest or weed control at 70 g/ha [2, 13]: 45 to 59% | pest or weed control at 140 g/ha [2, 13]: 60 to 74% | pest or weed control at 35 g/ha [2, 14]: 0 to 29% | pest or weed control at 70 g/ha [2, 14]: 30 to 44% | pest or weed control at 140 g/ha [2, 14]: 30 to 44%
